Test results reported in patent US10144736B2 (Gilead Sciences, Inc., priority 2006, dated 2018).
Like-named read-outs stand apart in the source and are kept apart here.

Columns and labels:
Huh-7 HCV replicon cells = test: CC50 assay (CellTiter-Glo) in Huh-7 HCV replicon cells; type: cell-based, human; conditions: 3 days incubation, 50% cytostatic concentration
Protocol: (§1) The anti HCV activity of specifically substituted pteridine derivatives was tested in a human hepatoma Huh-7 cell line harbouring a HCV replicon. The assay comprised the following steps:
(§2) Step 1: compound preparation and serial dilution involved the following alternatives, depending upon the water solubility of pteridine derivative being tested:
(§3) • 1. with respect to water soluble pteridine derivatives, 500 μL of solution in cell media (DMEM, 10% FBS, P/S, L-Glutamine) was prepared with a concentration that is twice the concentration of the starting final serial dilution concentration. 150 μL of the solution was added to the pre-specified wells in column 1 of a 96-well cell culture plate (PerkinElmer, white plate, cat. #6005181, for EC50 assay; black plate, cat. #6005182 for CC50 assay). The rest of the plate, i.e. columns 2-12, was filled with 100 μL of cell media. The plate was then placed on a Precision 2000 Workstation in order to start serial dilution. Pteridine compounds were diluted three times each step from column 1 to column 10. Column 11 was used as a blank control (no pteridine compound added). • 2. With respect to poorly water soluble pteridine derivatives, DMSO was used as a solvent, and serial dilution was performed in 50% DMSO in water, in a 384-well plate. A solution containing the relevant compound at 100-fold the concentration of the starting final serial dilution concentration was prepared in 50% DMSO in water and added to the pre-specified wells in column 1 of a polypropylene 384-well plate. This plate was then placed on a Precision 2000 Workstation in order to start serial dilution. After serial dilution, 2 μL of the solution was transferred from the 384-well plate to a 96-well cell culture plate containing 100 μL of cell media on a Biomek FX Workstation. The DMSO concentration in the final assay condition was 0.5% after cells have been added to the plate and the total volume in each well was brought to 200 μL. Step 2: to each well of the serial dilution plate prepared in step 1, 100 μL of cell media containing 6000 suspended Huh-7 HCV replicon cells was added with a Multidrop workstation. Plates were incubated for 3 days at 37° C. with 5% CO2. Step 3: detection: • 1) with respect to the EC50 assay, the media in a 96-well cell culture plate was aspirated with a Biotek EL405 plate-washer. A volume of 200 μL of a solution containing a 1:1 mixture of a cell-lysis buffer (commercially available from Promega, Luciferase Cell Culture Lysis 5X Reagent, cat. #E1531) and a luciferase substrate solution (commercially available from Promega, Luciferase Assay, cat. #E4550) was added to each well of the plate with Multidrop. The plate was incubated for 30 minutes at room temperature before the luminescence signal was measured with a TopCount plate-reader. • 2) with respect to the CC50 assay, 100 μL of a pre-mixed CellTiter-Glo (commercially available from Promega, cat. #G7572) solution was added directly to the cell culture in each well of the plate and the luminescence signal was measured with a TopCount plate-reader after 10 minutes of incubation at room temperature.
(§4) Results are expressed by the following data: • the 50% effective concentration (EC50), i.e. the concentration that protects 50% of the cell monolayer from virus-induced cythopathic effect. • the 50% cytostatic concentration (CC50), i.e. the concentration that results in 50% inhibition of cell growth.

HCV replicon = test: Anti-HCV replicon assay (EC50, luciferase readout); type: cell-based, hepatitis C virus; conditions: human hepatoma Huh-7 cell line harbouring a HCV replicon, 3 days incubation, luciferase signal
Protocol: as §1, §2, §3, §4

[1] = CC50 assay (CellTiter-Glo) in Huh-7 HCV replicon cells; type: cell-based, human; conditions: human, 3 days incubation, 50% cytostatic concentration
Protocol: as §1, §2, §3, §4

[2] = Hepatitis C virus, 72 h, read-out: EC50

## Nc1nc(N2CCOCC2)c2nc(-c3ccc(OC(F)(F)F)cc3)cnc2n1 [Example 86]
Huh-7 HCV replicon cells
  CC50: 10 to 20 µM
HCV replicon; read-out: EC50
  EC50: 0.3 to 1 µM

## Nc1nc(N2CCOCC2)c2nc(-c3cccc(F)c3F)cnc2n1 [Example 113, 6-(2,3-difluorophenyl)-4-morpholino-pteridin-2-ylamine]
Huh-7 HCV replicon cells
  CC50: > 20 µM
HCV replicon
  EC50: 1 to 10 µM

## C[C@H](NC(=O)OC(C)(C)C)C(=O)Nc1ccc(-c2cnc3nc(N)nc(N4CCOCC4)c3n2)cc1 [Example 140, (S)-tert-butyl 1-(4-(2-amino-4-morpholinopteridin-6-yl)phenylamino)-1-oxopropan-2-ylcarbamate]
[1]
  CC50 at 3 days: < 10 µM
HCV replicon; [2]
  EC50: 1 to 10 µM

## Nc1nc(N2CCOCC2)c2nc(-c3ccc(NC(=O)C4CC4)cc3)cnc2n1 [Example 142, Cyclopropane carboxylic acid[4-(2-amino-4-morpholin-4-yl-pteridin-6-yl)-phenyl]-amide]
Huh-7 HCV replicon cells
  CC50: < 10 µM
HCV replicon; read-out: EC50
  EC50: 0.3 to 1 µM

## Nc1nc(N)c2nc(-c3cccc(F)c3F)cnc2n1 [Example 143, 6-(2,3-difluoro-phenyl)-pteridine-2,4-diamine]
[1]
  CC50 at 3 days: 10 to 20 µM
HCV replicon; [2]
  EC50: 1 to 10 µM

## Nc1nc(N2CCOCC2)c2nc(-c3ccc(NC(=O)[C@@H](N)CO)cc3)cnc2n1 [Example 144, (S)-2-amino-N-(4-(2-amino-4-morpholinopteridin-6-yl)phenyl)-3-hydroxypropanamide]
[1]
  CC50 at 3 days: > 20 µM
HCV replicon; [2]
  EC50: 1 to 10 µM

## C[C@H](N)C(=O)Nc1ccc(-c2cnc3nc(N)nc(N4CCOCC4)c3n2)cc1 [Example 145, (S)-2-amino-N-(4-(2-amino-4-morpholinopteridin-6-yl)phenyl)-propanamide]
[1]
  CC50 at 3 days: > 20 µM
HCV replicon; [2]
  EC50: 0.3 to 1 µM

## COc1nc(N)nc2ncc(-c3ccc(F)cc3)nc12 [Example 149, 6-(4-Fluorophenyl)-4-methoxy-pteridin-2-ylamine]
[1]
  CC50 at 3 days: > 20 µM
HCV replicon; [2]
  EC50: 0.3 to 1 µM

## CC(C)Oc1nc(N)nc2ncc(-c3ccc(F)cc3)nc12 [Example 150, 6-(4-Fluorophenyl)-4-isopropoxy-pteridin-2-ylamine]
[1]
  CC50 at 3 days: > 20 µM
HCV replicon; [2]
  EC50: < 0.3 µM

## CCCCOc1nc(N)nc2ncc(-c3ccc(F)cc3)nc12 [Example 152, 4-Butoxy-6-(4-fluorophenyl)-pteridin-2-ylamine]
[1]
  CC50 at 3 days: > 20 µM
HCV replicon; [2]
  EC50: 1 to 10 µM

## CC(C)(O)CCOc1nc(N)nc2ncc(-c3ccc(F)cc3)nc12 [Example 154, 4-[2-Amino-6-(4-fluorophenyl)-pteridin-4-yloxy]-2-methyl-butan-2-ol]
[1]
  CC50 at 3 days: > 20 µM
HCV replicon; Hepatitis C virus, Huh-7, 72 h
  EC50: 1 to 10 µM

## Nc1nc(OCC2CC2)c2nc(-c3ccc(F)cc3)cnc2n1 [Example 157, 4-Cyclopropylmethoxy-6-(4-fluorophenyl)-pteridin-2-ylamine]
[1]
  CC50 at 3 days: > 20 µM
HCV replicon; [2]
  EC50: 1 to 10 µM

## CCCOc1nc(N)nc2ncc(-c3ccc(F)cc3)nc12 [Example 159, 6-(4-Fluorophenyl)-4-propoxy-pteridin-2-ylamine]
[1]
  CC50 at 3 days: > 20 µM
HCV replicon; [2]
  EC50: 1 to 10 µM

## CCSc1nc(N)nc2ncc(-c3ccc(F)cc3)nc12 [Example 164, 4-ethylthio-6-(4-fluorophenyl)-pteridin-2-ylamine]
[1]
  CC50 at 3 days: > 20 µM
HCV replicon; [2]
  EC50: 0.3 to 1 µM
